In paper PMC4133868 (BMB Reports, 2013):

Tests used:
[1] = target: T1, f-bCblC (Bos taurus, UniProt Q5E9C8); assay: biochemical
T1 sequence (Q5E9C8 1-280): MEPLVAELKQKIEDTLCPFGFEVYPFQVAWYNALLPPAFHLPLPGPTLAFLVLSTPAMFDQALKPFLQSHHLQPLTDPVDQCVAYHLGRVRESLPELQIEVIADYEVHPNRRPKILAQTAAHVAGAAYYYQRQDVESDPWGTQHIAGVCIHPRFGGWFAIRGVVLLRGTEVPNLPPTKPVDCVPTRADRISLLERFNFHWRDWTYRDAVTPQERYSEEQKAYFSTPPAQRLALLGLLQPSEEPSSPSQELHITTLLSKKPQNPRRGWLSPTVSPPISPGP

[2] = target: T2, t-bCblC (Bos taurus, UniProt Q5E9C8); assay: Isothermal titration calorimetry; type: binding, bovine
T2 sequence (Q5E9C8 1-244): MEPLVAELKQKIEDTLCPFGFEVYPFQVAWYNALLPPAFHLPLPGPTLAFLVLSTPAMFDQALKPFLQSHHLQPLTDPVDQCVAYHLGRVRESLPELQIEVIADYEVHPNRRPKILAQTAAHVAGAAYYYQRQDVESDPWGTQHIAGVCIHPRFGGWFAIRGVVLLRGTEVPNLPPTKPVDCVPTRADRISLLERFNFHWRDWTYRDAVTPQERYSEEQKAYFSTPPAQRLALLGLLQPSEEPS

[3] = target: T2, t-bCblC; assay: biochemical
[4] = target: T1, f-bCblC; settings: read-out: Kd of GSH for f-bCblC (ITC); cited from earlier work
[5] = target: T2, t-bCblC
[6] = target: T1, f-bCblC
[7] = hyperbolic fit of ΔTm vs GSH concentration

- AC50 [1]: 3100 ± 300 µM
- Kd [2]: 206 ± 35 µM
- AC50 [3]: 2800 ± 300 µM
- melting temperature Tm of t-bCblC in the presence of GSH ([5]; 10 mM GSH, Tm without GSH 41.5 ± 0.3℃): 45.2 ± 0.3 °C
- maximal ΔTm (ΔTm max) of t-bCblC [5, 7]: 5.2 ± 0.2 °C
- melting temperature Tm of f-bCblC in the presence of GSH ([6]; 10 mM GSH, Tm without GSH 42.1 ± 0.4℃): 44.2 ± 0.3 °C
- maximal ΔTm (ΔTm max) of f-bCblC [6, 7]: 2.8 ± 0.3 °C
Structure (SMILES): N[C@@H](CCC(=O)N[C@@H](CS)C(=O)NCC(=O)O)C(=O)O [GSH, glutathione]
- Kd [4]: 355 ± 40 µM
